# Read-outs that look alike come from different tables or passages of the source.
# Assays:
# [1] = tested on: Streptococ. Henclyt. 0203; assay: M.I.C. in vitro, gram+ Streptococ. Henclyt. (Table 1); assay type: cell-based
# Experimental: (§1) The method for evaluating the activity in vitro against bacteria, fungi and protozoa consists in introducing calculated quantities of the substance, the activity of which it is desired to test, into culture media already inoculated with a predetermined number of test germs.
# (§2) After 24 or 48 hours of incubation at 30° or 37° C., according to the micro-organism being tested, it is possible to evaluate the growth of the same in the culture broth; in this manner the minimum concentration (M.I.C.) which inhibits the growth of the micro-organisms in vitro is determined.
# (§3) In table 1 there are recorded the M.I.C. values in γ/ml of the products subject of the present invention, against certain gram+ and gram- bacterial strains, some of which are pathogenic towards human beings.
# [2] = tested on: Trichophyton Mentagrophytes; assay: Topical activity upon dermatophytis from Trichophyton in cavies (Table 6); assay type: in vivo, Albino cavies
# Experimental: Albino cavies of 250-300 g are infected, after depilation and scarification of a circular area of dorsal skin upon which there are supplied 0.1 ml of a suspension of microconidia of Trichophyton Mentagrophytes from the Pasteur Institute collection, obtained from a culture of 15 days upon Saboureaud agar. 24 Hours after infection topical treatment is started and is continued for two weeks (once per day).
# The compounds to be tested are dissolved or suspended at the desired concentration, in a water-alcohol mixture (75/25 v/v) containing 0.75% by weight of carboxymethyl-cellulose (CMC). […] Each single application is carried out using 0.25 ml of the suspension or solution obtained as described above.
# Fourteen days after infection the lesions are assessed. Assessment is carried out by attributing index numbers depending upon the seriousness of the lesions formed, as follows:
# The substances under examination were tested at concentrations of 5 and 2.5% by weight.
# [3] = tested on: Candida albicans; assay: Activity upon vaginal candidiasis in mice (Table 7); assay type: in vivo, female Swiss mice (Charles River CD1); details: for no. of animals surviving: 8 animals
# Experimental: The treatment groups consist each of 8 female Swiss mice (Charles River CD1) of average weight 20 g. The animals are infected with 0.025 ml of a 24 hour culture of Candida albicans, equal to 10^6 cellules.
# 0.025 ml of a suspension in lanoline of the compound to be tested, at the desired concentration, are applied locally twice a day for a week, the first treatment being started five hours after infection.
# The control group is treated with the lanoline alone in the same way. On the eighth day vaginal washings are carried out with 0.025 ml of sterile physiological solution, and the liquid is sown in Petri dishes containing Bacto Biggy Agon Difco as a selective growing medium for the Candida.
# After 48 hours of incubation of the dishes at 30° C. a count is taken of the colonies which have grown. Assessment of the activity is quantized using the indices listed here below:
# The results are expressed as percentages of the average index of seriousness of the infection A.D.I. (Average Degree of Infection) in the animals treated with respect to the animals in the control group.
# The substances under examination were tested at concentrations of 5 and 3% by weight.
# [4] = tested on: Diplococcus Pneum. ISM; assay: M.I.C. in vitro, gram+ Diplococcus Pneum. (Table 1); assay type: cell-based
# Experimental: as §1, §2, §3
# [5] = tested on: Esch. Coli. SKF 12140; assay: M.I.C. in vitro, gram- Esch. Coli (Table 1); assay type: cell-based, Escherichia Coli; details: Escherichia coli
# Experimental: as §1, §2, §3
# [6] = tested on: Pseudom.Aer. ATCC 1014; assay: M.I.C. in vitro, gram- Pseudom. Aer. (Table 1); assay type: cell-based, Pseudomonas Aeruginosa; details: Pseudomonas aeruginosa
# Experimental: as §1, §2, §3
# [7] = tested on: Proteus Vulc. ATCC 881; assay: M.I.C. in vitro, gram- Proteus Vulc. (Table 1); assay type: cell-based
# Experimental: as §1, §2, §3
# [8] = tested on: Trichomonas Vaginalis ISM 66/22; assay: Speed of sterilising action, Trichomonas Vaginalis (Table 3); assay type: cell-based
# Experimental: (§4) The strains, inoculants, culture broths and experimental methods are as already seen for calculating the M.I.C. in vitro. The antimicrobic substances were tested at concentrations of 0.1, 0.25, 0.5 and 1 g/l, the contact times taken into consideration are 0, 1, 2.5, 5, 7.5, 10, 15, 30 and 60 minutes.
# (§5) The samples which at the 7th day of incubation still had no growth of micro-organisms which could be observed macroscopically and/or microscopically were considered sterile.
# (§6) The results are recorded in Table 3 in terms of sterilization time expressed in minutes.
# [9] = tested on: Klens. Pneum. ISM; assay: M.I.C. in vitro, gram- Klens. Pneum. (Table 1); assay type: cell-based
# Experimental: as §1, §2, §3
# [10] = tested on: Candida Albicans SKF 2270; assay: Speed of sterilising action, Candida Albicans (Table 3); assay type: cell-based
# Experimental: as §4, §5, §6
# [11] = tested on: Escherichia Coli SKF 12140; assay: Speed of sterilising action, Escherichia Coli (Table 3); assay type: cell-based
# Experimental: as §4, §5, §6
# [12] = tested on: Staphylococcus Aureus Tour; assay: Speed of sterilising action, Staphylococcus Aureus (Table 3); assay type: cell-based
# Experimental: as §4, §5, §6
# [13] = tested on: Staph.Aureus Tour; assay: M.I.C. in vitro, gram+ Staph. Aureus (Table 1); assay type: cell-based, Staphylococcus Aureus; details: Staphylococcus aureus
# Experimental: as §1, §2, §3
# [14] = Acute oral toxicity in mice (Table 4); details: mouse, in vivo, po
# Experimental: The substances were administered orally to groups of 10 female mice CF1 of average weight of about 20 grams, in aqueous solution and in such way that the total volume administered would be in each case 1 ml/100 g of weight.
# [15] = tested on: Trichophyton Mentagrophytes Ist. Pasteur; assay: Speed of sterilising action, Trichophyton Mentagrophytes (Table 3); assay type: cell-based
# Experimental: as §4, §5, §6
# [16] = tested on: Pseudomonas Aeruginosa; assay: Antibacterial activity in vivo with topical treatment (Table 5); set-up: species or system female CF1 albino mice; details: for animals alive on the 15th day / animals dead on the 15th day: 10 animals; for % survivors: topical, 15th day
# Experimental: After their backs have been shaved, female CF1 albino mice weighing 18-22 g are scorched (under ether anaesthetic) for 15 seconds with a pad of brass previously immersed in boiling water (7-8% of the body surface). After 90 minutes there is applied to the scorched area 0.1 ml of a suspension of Pseudomonas Aeruginosa bacteria having 15% transmittance at 650 nm. The bacterial strain in question produces a high incidence of mortality, induced by septicemic diffusion from the point of infection. After 90 minutes, with the aid of a glass rod suitably flattened at one end, the preparation containing a known concentration of the compound under examination is applied locally. The treatment is continued for a total of six days (once per day). On the fifteenth day the percentage of survivors to the tested doses in recorded.
# The carrier used for applying the compounds under examination is an aqueous 0.75% solution of carboxymethyl-cellulose. The concentrations of the compounds tested are 2, 1, 0.5 and 0.25% by weight.
# [17] = tested on: Trych. Mentagr. 1st.Pastuer; assay: MIC mildews, Trichophyton mentagrophytes (Table 2); assay type: cell-based; details: Trichophyton mentagrophytes, Sabourand broth, read-out: MIC
# Experimental: as §1, §2
# (§7) Inoculation with Trichophyton mentagrophytes and Microsporum canis was effected in a ratio of 1% of the volume of medium used.
# (§8) For the fungi Sabourand broth was used as a culture medium, whilst for the protozoa Kupferberg Trichomonas broth with 5% of horse serum was used.
# [18] = tested on: Nicrosporum Canis ATCC 11621; assay: MIC mildews, Microsporum canis (Table 2); assay type: cell-based; details: Microsporum canis, Sabourand broth, read-out: MIC
# Experimental: as §1, §2, §7, §8
# [19] = tested on: Candida Pseudotrop. ATCC 2512; assay: MIC yeasts, Candida pseudotropicalis (Table 2); assay type: cell-based; details: Candida, Sabourand broth, read-out: MIC
# Experimental: as §1, §2
# (§9) Inoculation with Candida albicans or Candida pseudotropicalis was made by diluting cultures grown for 24 h at 30° C. (cellular density inoculated 10^3 /ml).
# as §8
# [20] = tested on: Candida Albic. SKF 2270; assay: MIC yeasts, Candida albicans (Table 2); assay type: cell-based; details: Candida, Sabourand broth, read-out: MIC
# Experimental: as §1, §2, §9, §8
# [21] = tested on: Trich. Vaginalis ISM 66/22; assay: MIC protozoa, Trichomonas vaginalis (Table 2); assay type: cell-based; details: Trichomonas vaginalis, +10% serum (head); Kupferberg Trichomonas broth with 5% of horse serum; read-out: MIC
# Experimental: as §1, §2
# (§10) Inoculation with Trichomonas vaginalis and Trichomonas foetus, obtained from cultures transplanted every other day to make them lively, was effected in a ratio of 3.5% of the volume of medium used.
# as §8
# [22] = tested on: Trich. Foetus ISM 66/23; assay: MIC protozoa, Trichomonas foetus (Table 2); assay type: cell-based; details: Tritrichomonas foetus, +10% serum (head); Kupferberg Trichomonas broth with 5% of horse serum; read-out: MIC
# Experimental: as §1, §2, §10, §8
# [23] = without serum, read-out: M.I.C.
compound,measurement,setting,value
"CCCCCCCCCCCCCCCC[n+]1ccccc1 [Cetyl pyridine chloride, cetyl pyridine chloride, reference compound]",MIC,[1]; +10% serum,5 µg/mL
same,MIC,[1]; without serum,0.5 µg/mL
same,A.D.I. (% of control group),[2]; 2.5% by weight,81.27%
same,healing % (100-A.D.I. %),[2]; 2.5% by weight,18.73%
same,A.D.I. (% of control group),[2]; 5% by weight,49.81%
same,healing % (100-A.D.I. %),[2]; 5% by weight,50.19%
same,evaluation of seriousness of infection (A.D.I.),"[2]; 5% by weight, average index",1.33
same,% of healing (100-A.D.I. %),[3]; 3% by weight,15.97%
same,A.D.I. (compared with controls),[3]; 3% by weight,84.03%
same,no. of animals surviving,[3]; 3% by weight,6
same,no. of animals surviving,[3]; 5% by weight,2
same,death of treated animals,"[3]; highest dose, before the end of the experiment",75%
same,mortality,[3]; lower dose,25%
same,MIC,[4]; +10% serum,10 µg/mL
same,MIC,[4]; without serum,1 µg/mL
same,MIC,[5]; +10% serum,> 100 µg/mL
same,MIC,[5]; without serum,5 µg/mL
same,MIC,"[6]; ATCC1014, +10% serum",> 200 µg/mL
same,MIC,"[6]; ATCC1014, without serum",200 µg/mL
same,MIC,[7]; +10% serum,> 100 µg/mL
same,MIC,[7]; without serum,20 µg/mL
same,sterilization time,[8]; 0.1 g/l,5 min
same,sterilization time,[8]; 0.25 g/l,2.5 min
same,sterilization time,[8]; 0.5 g/l,1 min
same,sterilization time,[8]; 1 g/l,1 min
same,MIC,[9]; +10% serum,> 100 µg/mL
same,MIC,[9]; without serum,5 µg/mL
same,sterilization time,[10]; 0.1 g/l,60 min
same,sterilization time,[10]; 0.25 g/l,10 min
same,sterilization time,[10]; 0.5 g/l,10 min
same,sterilization time,[10]; 1 g/l,10 min
same,sterilization time,[11]; 0.1 g/l,> 60 min
same,sterilization time,[11]; 0.25 g/l,> 60 min
same,sterilization time,[11]; 0.5 g/l,> 60 min
same,sterilization time,[11]; 1 g/l,> 60 min
same,sterilization time,[12]; 0.1 g/l,7.5 min
same,sterilization time,[12]; 0.25 g/l,2.5 min
same,sterilization time,[12]; 0.5 g/l,1 min
same,sterilization time,[12]; 1 g/l,1 min
same,MIC,[13]; +10% serum,10 µg/mL
same,MIC,[13]; without serum,0.1 µg/mL
same,LD50 at 336 h,[14],275 mg/kg
same,sterilization time,[15]; 0.1 g/l,60 min
same,sterilization time,[15]; 0.25 g/l,60 min
same,sterilization time,[15]; 0.5 g/l,30 min
same,sterilization time,[15]; 1 g/l,5 min
same,animals alive on the 15th day,[16]; 0.25% by weight,1
same,animals dead on the 15th day,[16]; 0.25% by weight,9
same,% survivors,[16]; 0.25% by weight,10%
same,animals alive on the 15th day,[16]; 0.5% by weight,3
same,animals dead on the 15th day,[16]; 0.5% by weight,7
same,% survivors,[16]; 0.5% by weight,30%
same,animals alive on the 15th day,[16]; 1% by weight,2
same,animals dead on the 15th day,[16]; 1% by weight,8
same,% survivors,[16]; 1% by weight,20%
same,animals alive on the 15th day,[16]; 2% by weight,4
same,animals dead on the 15th day,[16]; 2% by weight,6
same,% survivors,[16]; 2% by weight,40%
CCCCCCCCCCC[N+](C)(C)CCOC(=O)C12CC3CC(CC(C3)C1)C2 [Example 3],MIC,"[1]; +10% serum, read-out: M.I.C.",9.2 µg/mL
same,MIC,[1]; [23],< 0.1 µg/mL
same,MIC,[17]; +10% serum,10 µg/mL
same,MIC,[17]; without serum,0.1 µg/mL
same,MIC,"[18]; ATCC11621, +10% serum",10 µg/mL
same,MIC,"[18]; ATCC11621, without serum",< 0.1 µg/mL
same,MIC,"[19]; ATCC2512, +10% serum",50 µg/mL
same,MIC,"[19]; ATCC2512, without serum",< 0.1 µg/mL
same,MIC,"[4]; +10% serum, read-out: M.I.C.",5 µg/mL
same,MIC,[4]; [23],0.5 µg/mL
same,MIC,"[5]; +10% serum, read-out: M.I.C.",100 µg/mL
same,MIC,[5]; [23],2 µg/mL
same,MIC,"[6]; ATCC1014, +10% serum, read-out: M.I.C.",100 µg/mL
same,MIC,"[6]; ATCC1014, without serum, read-out: M.I.C.",20 µg/mL
same,MIC,"[7]; +10% serum, read-out: M.I.C.",100 µg/mL
same,MIC,[7]; [23],5 µg/mL
same,MIC,"[9]; +10% serum, read-out: M.I.C.",100 µg/mL
same,MIC,[9]; [23],5 µg/mL
same,MIC,[20]; +10% serum,20 µg/mL
same,MIC,[20]; without serum,0.5 µg/mL
same,MIC,[21],5 µg/mL
same,MIC,"[13]; +10% serum, read-out: M.I.C.",5 µg/mL
same,MIC,[13]; [23],< 0.1 µg/mL
same,LD50 at 336 h,"[14]; LD50, oral, mice, 14 days",745 mg/kg
same,MIC,[22],5 µg/mL
